{
  "source": "paper PMC11110755",
  "about": "“Structure-based virtual screening of unbiased and RNA-focused libraries to identify new ligands for the HCV IRES model system” (RSC Medicinal Chemistry, 2024)",
  "origin": "cited, not measured here",
  "tested_on": "HCV IRES subdomain IIa",
  "parameters": "method as in PMID 20564282",
  "details": "previously reported, Fig. 1; read-out: EC50 (2-AP assay); cited from earlier work",
  "data": [
    {"smiles": "CC(=O)c1ccc(C(=O)N[C@@H](CCCCN)C(=O)N2C[C@H](N)C[C@H](N)C2)cc1", "note": "[Compound 3]", "values": [
      {"measurement": "EC50", "result": 270, "unit": "µM"}
    ]}
  ]
}
